Assay results from article PMC3901432 (Bioorganic & medicinal chemistry letters, 2013).

Tests used:
mGlu3 = mGlu3 (Homo sapiens, UniProt Q14832); assay: mGlu selectivity cell based functional assay; settings: tested at 10 μM
mGlu7 = mGlu7 (Homo sapiens, UniProt Q14831); assay: mGlu selectivity cell based functional assay; settings: tested at 10 μM
mGlu4 = mGlu4 (Homo sapiens, UniProt Q14833); assay: mGlu selectivity cell based functional assay; settings: tested at 10 μM
mGlu8 = mGlu8 (Homo sapiens, UniProt O00222); assay: mGlu selectivity cell based functional assay; settings: tested at 10 μM
CYP3A4 = CYP3A4 (Homo sapiens, UniProt P08684); assay: Cytochrome P450 inhibition assay in pooled human liver microsomes; format: in vitro ADME
mGlu2 = mGlu2 (Homo sapiens, UniProt Q14416); assay: mGlu selectivity cell based functional assay; settings: tested at 10 μM
mGlu6 = mGlu6 (Homo sapiens, UniProt O15303); assay: mGlu selectivity cell based functional assay; settings: tested at 10 μM
human mGlu1 = human mGlu1 (Homo sapiens, UniProt Q13255); assay: Calcium mobilization mGlu1 assay; format: cell-based; settings: for LLE: ligand-lipophilicity efficiency = pIC50−cLogP; for mGlu1 antagonism (in words): up to the top concentration of 30 μM
Sequence of human mGlu1 (Q13255 19-1194): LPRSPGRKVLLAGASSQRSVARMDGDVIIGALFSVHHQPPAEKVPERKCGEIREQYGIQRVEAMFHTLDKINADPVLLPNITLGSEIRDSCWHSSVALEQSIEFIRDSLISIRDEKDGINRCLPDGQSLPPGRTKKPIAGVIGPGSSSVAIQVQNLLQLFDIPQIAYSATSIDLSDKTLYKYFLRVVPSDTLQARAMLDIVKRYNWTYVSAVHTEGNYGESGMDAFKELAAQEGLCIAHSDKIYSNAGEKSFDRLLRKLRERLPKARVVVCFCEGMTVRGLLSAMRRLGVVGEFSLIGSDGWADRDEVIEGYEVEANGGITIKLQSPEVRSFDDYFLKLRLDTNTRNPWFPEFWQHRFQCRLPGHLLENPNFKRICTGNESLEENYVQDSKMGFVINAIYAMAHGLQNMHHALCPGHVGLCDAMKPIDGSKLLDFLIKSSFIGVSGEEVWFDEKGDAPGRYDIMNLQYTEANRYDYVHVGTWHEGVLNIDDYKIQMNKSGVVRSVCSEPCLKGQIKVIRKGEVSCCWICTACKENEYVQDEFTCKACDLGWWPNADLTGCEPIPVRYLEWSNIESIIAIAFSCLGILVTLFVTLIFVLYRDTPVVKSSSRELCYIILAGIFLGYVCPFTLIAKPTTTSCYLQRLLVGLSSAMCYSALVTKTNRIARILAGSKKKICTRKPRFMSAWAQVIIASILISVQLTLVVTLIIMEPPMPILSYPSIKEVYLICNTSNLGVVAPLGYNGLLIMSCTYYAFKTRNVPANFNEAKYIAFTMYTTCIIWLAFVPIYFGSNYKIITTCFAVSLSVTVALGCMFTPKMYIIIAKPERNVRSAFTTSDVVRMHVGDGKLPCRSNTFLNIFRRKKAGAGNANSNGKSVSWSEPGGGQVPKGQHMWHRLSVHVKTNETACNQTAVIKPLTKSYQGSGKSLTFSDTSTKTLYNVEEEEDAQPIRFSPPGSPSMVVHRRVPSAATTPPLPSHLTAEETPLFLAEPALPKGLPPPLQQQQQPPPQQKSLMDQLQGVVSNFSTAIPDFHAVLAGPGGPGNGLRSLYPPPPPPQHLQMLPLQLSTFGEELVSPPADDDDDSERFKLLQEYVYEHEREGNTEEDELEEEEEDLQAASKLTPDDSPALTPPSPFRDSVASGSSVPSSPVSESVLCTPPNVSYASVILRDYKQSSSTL

Sequence of mGlu4 (Q14833 33-912): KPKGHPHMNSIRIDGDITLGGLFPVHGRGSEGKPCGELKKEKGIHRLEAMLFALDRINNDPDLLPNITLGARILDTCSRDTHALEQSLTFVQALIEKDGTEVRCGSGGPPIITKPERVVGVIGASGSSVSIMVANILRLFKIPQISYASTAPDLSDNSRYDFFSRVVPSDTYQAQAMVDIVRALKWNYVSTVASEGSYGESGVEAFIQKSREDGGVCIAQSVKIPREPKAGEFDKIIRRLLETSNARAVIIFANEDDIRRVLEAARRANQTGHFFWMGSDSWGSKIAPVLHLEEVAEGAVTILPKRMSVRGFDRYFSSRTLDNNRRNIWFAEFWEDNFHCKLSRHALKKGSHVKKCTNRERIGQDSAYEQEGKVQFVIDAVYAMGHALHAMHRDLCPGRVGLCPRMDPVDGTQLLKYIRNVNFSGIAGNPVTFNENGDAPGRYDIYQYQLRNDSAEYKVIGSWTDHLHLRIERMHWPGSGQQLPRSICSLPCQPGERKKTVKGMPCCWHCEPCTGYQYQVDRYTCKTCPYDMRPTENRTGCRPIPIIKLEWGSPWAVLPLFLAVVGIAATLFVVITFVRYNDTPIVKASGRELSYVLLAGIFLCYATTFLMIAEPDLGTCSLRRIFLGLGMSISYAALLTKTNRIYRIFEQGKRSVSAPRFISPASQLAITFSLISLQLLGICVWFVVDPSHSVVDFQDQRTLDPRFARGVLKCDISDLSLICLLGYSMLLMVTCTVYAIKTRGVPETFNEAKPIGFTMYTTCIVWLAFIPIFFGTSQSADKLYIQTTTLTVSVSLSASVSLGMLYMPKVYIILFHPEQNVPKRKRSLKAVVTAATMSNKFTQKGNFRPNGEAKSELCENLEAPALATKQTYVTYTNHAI
Sequence of mGlu6 (O15303 25-877): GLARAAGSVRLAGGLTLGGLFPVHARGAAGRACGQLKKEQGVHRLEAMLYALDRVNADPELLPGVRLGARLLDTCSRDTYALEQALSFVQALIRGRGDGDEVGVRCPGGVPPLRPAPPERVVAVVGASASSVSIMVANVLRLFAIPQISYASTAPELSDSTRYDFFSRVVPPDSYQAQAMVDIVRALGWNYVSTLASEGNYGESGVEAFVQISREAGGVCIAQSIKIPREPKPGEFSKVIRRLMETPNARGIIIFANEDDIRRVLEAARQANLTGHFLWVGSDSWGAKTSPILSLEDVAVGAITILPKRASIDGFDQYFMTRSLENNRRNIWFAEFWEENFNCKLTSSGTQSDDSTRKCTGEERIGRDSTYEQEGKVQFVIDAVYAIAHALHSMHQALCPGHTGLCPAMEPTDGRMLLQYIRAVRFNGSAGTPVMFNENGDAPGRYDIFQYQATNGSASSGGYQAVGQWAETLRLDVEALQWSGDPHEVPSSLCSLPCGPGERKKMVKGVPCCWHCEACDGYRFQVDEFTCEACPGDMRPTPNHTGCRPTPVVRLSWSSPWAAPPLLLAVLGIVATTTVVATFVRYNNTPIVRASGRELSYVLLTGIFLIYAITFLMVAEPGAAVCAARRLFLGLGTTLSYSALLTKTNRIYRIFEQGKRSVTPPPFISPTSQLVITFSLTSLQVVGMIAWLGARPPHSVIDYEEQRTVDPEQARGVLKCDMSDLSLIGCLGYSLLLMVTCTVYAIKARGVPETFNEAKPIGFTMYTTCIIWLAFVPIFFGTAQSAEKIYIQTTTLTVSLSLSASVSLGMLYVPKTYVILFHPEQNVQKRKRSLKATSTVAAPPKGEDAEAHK
Sequence of mGlu8 (O00222 34-908): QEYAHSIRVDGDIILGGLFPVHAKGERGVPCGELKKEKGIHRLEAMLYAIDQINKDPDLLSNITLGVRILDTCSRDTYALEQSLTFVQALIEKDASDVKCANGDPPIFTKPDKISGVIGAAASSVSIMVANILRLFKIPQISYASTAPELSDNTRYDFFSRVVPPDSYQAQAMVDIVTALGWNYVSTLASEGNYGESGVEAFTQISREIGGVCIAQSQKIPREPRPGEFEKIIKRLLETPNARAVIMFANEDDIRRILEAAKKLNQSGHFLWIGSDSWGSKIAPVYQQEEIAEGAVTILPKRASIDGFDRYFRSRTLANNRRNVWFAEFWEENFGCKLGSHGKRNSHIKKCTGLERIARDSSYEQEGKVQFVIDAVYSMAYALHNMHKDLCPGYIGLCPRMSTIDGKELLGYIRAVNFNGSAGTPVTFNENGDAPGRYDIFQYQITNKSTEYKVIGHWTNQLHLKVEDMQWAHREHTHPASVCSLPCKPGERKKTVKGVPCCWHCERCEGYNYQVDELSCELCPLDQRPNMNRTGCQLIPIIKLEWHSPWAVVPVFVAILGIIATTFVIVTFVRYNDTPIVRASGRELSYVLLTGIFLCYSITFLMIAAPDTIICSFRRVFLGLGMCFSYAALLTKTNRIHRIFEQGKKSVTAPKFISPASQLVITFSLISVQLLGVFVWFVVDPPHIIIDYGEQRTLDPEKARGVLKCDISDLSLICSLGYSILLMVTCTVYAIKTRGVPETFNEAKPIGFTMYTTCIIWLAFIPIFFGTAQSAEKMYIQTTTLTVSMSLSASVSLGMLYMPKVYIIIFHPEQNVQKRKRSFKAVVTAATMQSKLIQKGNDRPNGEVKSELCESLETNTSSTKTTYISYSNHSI
Sequence of mGlu2 (Q14416 19-872): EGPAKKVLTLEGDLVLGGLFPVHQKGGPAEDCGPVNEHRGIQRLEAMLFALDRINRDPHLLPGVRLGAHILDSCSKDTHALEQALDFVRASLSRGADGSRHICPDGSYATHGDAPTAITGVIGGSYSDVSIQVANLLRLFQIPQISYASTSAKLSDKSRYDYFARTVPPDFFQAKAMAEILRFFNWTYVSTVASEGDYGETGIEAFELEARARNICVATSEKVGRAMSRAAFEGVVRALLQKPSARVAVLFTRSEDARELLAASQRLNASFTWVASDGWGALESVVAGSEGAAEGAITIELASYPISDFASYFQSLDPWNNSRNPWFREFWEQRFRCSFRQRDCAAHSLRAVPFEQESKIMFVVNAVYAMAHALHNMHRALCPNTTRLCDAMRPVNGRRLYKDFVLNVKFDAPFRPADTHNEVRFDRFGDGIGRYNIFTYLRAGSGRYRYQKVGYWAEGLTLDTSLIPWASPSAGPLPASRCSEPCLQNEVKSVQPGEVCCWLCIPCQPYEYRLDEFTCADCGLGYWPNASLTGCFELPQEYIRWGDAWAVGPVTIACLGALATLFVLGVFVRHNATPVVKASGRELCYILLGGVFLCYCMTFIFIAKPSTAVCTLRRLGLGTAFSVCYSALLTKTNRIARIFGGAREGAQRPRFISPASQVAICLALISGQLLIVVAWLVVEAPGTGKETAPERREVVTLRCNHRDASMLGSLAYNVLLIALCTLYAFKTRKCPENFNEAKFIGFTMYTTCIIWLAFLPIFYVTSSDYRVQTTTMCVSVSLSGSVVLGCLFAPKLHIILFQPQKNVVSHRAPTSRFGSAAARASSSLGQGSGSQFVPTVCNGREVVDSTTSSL

| SMILES | LLE (human mGlu1) | mGlu1 antagonism (in words) (human mGlu1) | mGlu1 potency relative to 8 (fold less potent) (human mGlu1) | also measured |
| --- | --- | --- | --- | --- |
| O=C(N1C[C@@H]2CN(c3ccccn3)C[C@@H]2C1)C12CC3CC(CC(C3)C1)C2 [Compound 8] | 2.79 | – | – | activity at mGlu3 (mGlu3): no activity; activity at mGlu7 (mGlu7): very weak and marginal activity; activity at mGlu4 (mGlu4): no activity; activity at mGlu8 (mGlu8): very weak and marginal activity; CYP3A4 inhibition (in words) (CYP3A4): moderate inhibitors; activity at mGlu2 (mGlu2): no activity; activity at mGlu6 (mGlu6): very weak and marginal activity; human mGlu1 potency relative to 1 (fold more potent) (human mGlu1): greater than seven fold |
| CC(C)(C)C(=O)N1C[C@@H]2CN(c3ccccn3)C[C@@H]2C1 [Compound 9] | – | inactive | – | – |
| CC1(C(=O)N2C[C@@H]3CN(c4ccccn4)C[C@@H]3C2)CCCCC1 [Compound 14] | – | – | sixty | – |
| CC(C)(C)CC(=O)N1C[C@@H]2CN(c3ccccn3)C[C@@H]2C1 [Compound 16] | – | inactive | – | – |
| O=C(N1C[C@@H]2CN(c3nccs3)C[C@@H]2C1)C12CC3CC(CC(C3)C1)C2 [Compound 23] | – | only weak antagonists | – | – |
| O=C(N1C[C@@H]2CN(c3ncccn3)C[C@@H]2C1)C12CC3CC(CC(C3)C1)C2 [Compound 24] | – | only weak antagonists | – | – |
| O=C(N1C[C@@H]2CN(c3ccncn3)C[C@@H]2C1)C12CC3CC(CC(C3)C1)C2 [Compound 25] | – | only weak antagonists | – | – |
| O=C(N1C[C@@H]2CN(c3cnccn3)C[C@@H]2C1)C12CC3CC(CC(C3)C1)C2 [Compound 26] | 1.21 | – | eight fold | – |
| O=C(N1C[C@@H]2CN(c3cccc(F)n3)C[C@@H]2C1)C12CC3CC(CC(C3)C1)C2 [Compound 27] | 2.50 | – | equipotent | – |
| O=C(N1C[C@@H]2CN(c3ccc(F)cn3)C[C@@H]2C1)C12CC3CC(CC(C3)C1)C2 [Compound 28] | 1.88 | – | six fold | – |
| O=C(N1C[C@@H]2CN(c3ncccc3F)C[C@@H]2C1)C12CC3CC(CC(C3)C1)C2 [Compound 29] | – | – | 12 fold | – |
| N#Cc1ccccc1N1C[C@H]2CN(C(=O)C34CC5CC(CC(C5)C3)C4)C[C@H]2C1 [Compound 30] | 2.18 | – | – | – |
| N#Cc1ccncc1N1C[C@H]2CN(C(=O)C34CC5CC(CC(C5)C3)C4)C[C@H]2C1 [Compound 32] | – | moderate potency | – | – |
| N#Cc1ncccc1N1C[C@H]2CN(C(=O)C34CC5CC(CC(C5)C3)C4)C[C@H]2C1 [Compound 34] | 2.87 | moderate potency | – | – |
| O=C(N1C[C@@H]2CN(c3ccccn3)C[C@@H]2C1)N1CCC2(CCCC2)C1 [Compound 38] | 4.12 | – | three fold | activity at mGlu3 (mGlu3): no activity; activity at mGlu7 (mGlu7): no activity; activity at mGlu4 (mGlu4): no activity; activity at mGlu8 (mGlu8): very weak and marginally significant activity; activity at mGlu2 (mGlu2): no activity; activity at mGlu6 (mGlu6): very weak and marginally significant activity |
| O=C(N1CCC2(CCCCC2)CC1)N1C[C@@H]2CN(c3ccccn3)C[C@@H]2C1 [Compound 40] | 2.71 | – | – | – |
| C[C@@H]1CN(c2cccnc2C#N)CCN1C(=O)C12CC3CC(CC(C3)C1)C2 [VU0469650, reference compound] | – | – | – | CYP3A4 inhibition (in words) (CYP3A4): moderate inhibitors |
